Test results as given in publication PMC7351026, “Serum Half-Lives for Short- and Long-Chain Perfluoroalkyl Acids after Ceasing Exposure from Drinking Water Contaminated by Firefighting Foam” (Environmental Health Perspectives, 2020).
Several values for one entry are separate records, joined by “and”; a condition that tells them apart may be missing. Identical values can stand only once. Like-named read-outs stand apart in the source and are kept apart here.

Tests used:
[1] = Individual serum elimination rate and half-life (linear regression per employee); settings: individual estimate; for half-life: human, serum, oral, HL (half-life)
How it was run: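 Log-transformed serum PFAS concentrations regressed on days since clean bottled water supply, per employee, assuming one-compartment first-order elimination. Individual k taken as −β (negative slope); half-life as ln2/k for each PFAS. No half-life calculated when β was positive.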

[2] = Serum/water ratio; type: in vivo, human; settings: median serum level of first samples (26 employees) divided by airport drinking-water level
Experimental: The ratio of serum and water concentration for each PFAS (serum/water ratio) was calculated based on median serum level in the first serum sample obtained from all 26 airport employees divided by the drinking-water concentration. This ratio is an indicator of PFAS accumulation in body.

[3] = cited from earlier work
[4] = PFAS levels in urine samples of airport employees, specific-gravity adjusted (LC/MS/MS); type: in vivo, human
How it was run: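 50 μL urine mixed with methanol and acetonitrile containing isotope-labelled internal standards, shaken 30 min, centrifuged, then analysed by LC/MS/MS in negative ion mode. Concentrations specific-gravity adjusted; urine/serum ratios from paired samples of 17 employees, averaged over repeated samplings per employee.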

[5] = Urine/serum ratio in paired samples; type: in vivo, human; settings: mean of four paired samplings per subject, 17 airport employees
Experimental: Urinary PFAS concentrations were specific-gravity adjusted. The ratio of urine and serum concentration for each PFAS (urine/serum ratio) at each sampling was calculated based on PFAS concentrations in paired serum and urine samples from 17 employees. Then the personal average urine/serum ratio was calculated using the mean value of repeated samplings for each employee.

[6] = Population average serum elimination rate and half-life (linear mixed model, one compartment, first-order); settings: for half-life: human, serum, oral, Half-life (95% CI)
How it was run: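 Log-transformed serum PFAS fitted with a linear mixed model (random intercept only; age and sex as covariates), assuming one-compartment first-order elimination. Time counted in days from clean-water supply to first sampling. k is the negative average slope; half-life = ln2/k; sensitivity run after subtracting reference-population median background.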

[7] = 2nd sampling (October 2018), count 17
[8] = 3rd sampling (November, 2018), count 16
[9] = 4th sampling (December 2018), count 14
[10] = 5th sampling (January 2019), count 12
[11] = population average, model with original serum levels, age and sex as covariates
[12] = population average, model with serum levels after subtraction of background exposure (sensitivity analysis)

For `O=C(O)C(F)(F)C(F)(F)C(F)(F)C(F)(F)C(F)(F)C(F)(F)C(F)(F)F` [PFOA, perfluorooctanoic acid], the half-life ([1]; subject 1, 5 samples) was 877 days, the half-life ([1]; subject 2, 5 samples) was 1060 days and the half-life ([1]; subject 3, 5 samples) was 438 days. For the same compound, the half-life ([1]; subject 4, 5 samples) was 840 days, the half-life ([1]; subject 5, 5 samples) was 804 days and the half-life ([1]; subject 6, 4 samples) was 1060 days. The half-life ([1]; subject 7, 5 samples) was 584 days, the half-life ([1]; subject 9, 5 samples) was 694 days and the half-life ([1]; subject 10, 5 samples) was 767 days. For the same compound, the half-life ([1]; subject 11, 5 samples) was 548 days, the half-life ([1]; subject 12, 5 samples) was 365 days and the half-life ([1]; subject 13, 5 samples) was 584 days. The half-life ([1]; subject 14, 4 samples) was 584 days, the half-life ([1]; subject 15, 5 samples) was 402 days and the half-life ([1]; subject 16, 5 samples) was 986 days. For the same compound, the half-life ([1]; subject 17, 5 samples) was 438 days, the Elimination rate ([1]; subject 1, 5 samples) was 0.3 yearly and the Elimination rate ([1]; subject 2, 5 samples) was 0.2 yearly. The Elimination rate ([1]; subject 3, 5 samples) was 0.6 yearly, the Elimination rate ([1]; subject 4, 5 samples) was 0.3 yearly and the Elimination rate ([1]; subject 5, 5 samples) was 0.3 yearly. It also gave an Elimination rate ([1]; subject 6, 4 samples) of 0.2 yearly, an Elimination rate ([1]; subject 7, 5 samples) of 0.4 yearly and an Elimination rate ([1]; subject 8, 5 samples) of 0.007 yearly. It also gave an Elimination rate ([1]; subject 9, 5 samples) of 0.4 yearly, an Elimination rate ([1]; subject 10, 5 samples) of 0.3 yearly and an Elimination rate ([1]; subject 11, 5 samples) of 0.5 yearly. The Elimination rate ([1]; subject 12, 5 samples) was 0.7 yearly, the Elimination rate ([1]; subject 13, 5 samples) was 0.4 yearly and the Elimination rate ([1]; subject 14, 4 samples) was 0.4 yearly. It also gave an Elimination rate ([1]; subject 15, 5 samples) of 0.6 yearly, an Elimination rate ([1]; subject 16, 5 samples) of 0.3 yearly and an Elimination rate ([1]; subject 17, 5 samples) of 0.6 yearly. For the same compound, the Serum/water ratio [2] was 30.3, the Average half-life ([3]; 26 retired fluorochemical production workers, 5-y follow-up, ref Olsen et al. 2007) was 3.8 y and the half-life ([3]; 138 Germans, 2-y follow-up, ref Brede et al. 2010) was 3.3 y. For the same compound, the half-life ([3]; 200 Americans, 1-y follow-up, ref Bartell et al. 2010) was 2.3 y, the Average half-life ([3]; general Swedish population (Ronneby, 106 Swedes) with high exposure through drinking water, 2 y follow-up from 6 months after clean water, ref Li et al. 2018) was 2.7 y and the “Specific gravity adjusted urinary level, 25 percentile” value [4, 7] was 0.02 ng/mL. For the same compound, the “Specific gravity adjusted urinary level, 75 percentile” value [4, 7] was 0.04 ng/mL, the “Specific gravity adjusted urinary level, Max” value [4, 7] was 0.07 ng/mL and the “Specific gravity adjusted urinary level, Median” value [4, 7] was 0.03 ng/mL. The “Specific gravity adjusted urinary level, Min” value [4, 7] was 0.01 ng/mL, the “Specific gravity adjusted urinary level, 25 percentile” value [4, 8] was 0.02 ng/mL and the “Specific gravity adjusted urinary level, 75 percentile” value [4, 8] was 0.04 ng/mL. The “Specific gravity adjusted urinary level, Max” value [4, 8] was 0.07 ng/mL, the “Specific gravity adjusted urinary level, Median” value [4, 8] was 0.03 ng/mL and the “Specific gravity adjusted urinary level, Min” value [4, 8] was 0.01 ng/mL. The “Specific gravity adjusted urinary level, 25 percentile” value [4, 9] was 0.02 ng/mL, the “Specific gravity adjusted urinary level, 75 percentile” value [4, 9] was 0.05 ng/mL and the “Specific gravity adjusted urinary level, Max” value [4, 9] was 0.13 ng/mL. The “Specific gravity adjusted urinary level, Median” value [4, 9] was 0.04 ng/mL, the “Specific gravity adjusted urinary level, Min” value [4, 9] was 0.01 ng/mL and the “Specific gravity adjusted urinary level, 25 percentile” value [4, 10] was 0.03 ng/mL. For the same compound, the “Specific gravity adjusted urinary level, 75 percentile” value [4, 10] was 0.04 ng/mL, the “Specific gravity adjusted urinary level, Max” value [4, 10] was 0.07 ng/mL and the “Specific gravity adjusted urinary level, Median” value [4, 10] was 0.03 ng/mL. The “Specific gravity adjusted urinary level, Min” value [4, 10] was 0.02 ng/mL, the “Specific gravity adjusted urine level, median (range)” value ([4]; second to fifth samplings, 17 airport employees) was 0.031 (0.010–0.13) ng/mL and the “Personal average urine/serum ratio, median (range)” value [5] was 0.0032 and 0.0032 (0.00066–0.0067). It also gave a half-life [6, 11] of 646 days, a half-life [6, 12] of 541 days and an Average serum half-life ([6]; population average, linear mixed model with original serum levels, 17 airport employees after end of drinking-water exposure) of 1.77 y. The “Constant elimination rate (95% CI)” value [6, 11] was 0.39 (0.3, 0.49) yearly, the “Constant elimination rate (95% CI)” value [6, 12] was 0.47 (0.35, 0.58) yearly and the “Reduction of half-life estimation after subtraction of background levels” value ([6]; sensitivity analysis vs model with original serum levels) was 16%.
